# In publication PMC4811770 (eLife, 2016):
# Structures can show the parent of a compound that is named as a salt. Where two headings read alike, the source gives them in different places.
# Key:
# [1] = test system: wild-type sperm; assay: Intracellular pH measurement with BCECF in wild-type sperm; assay type: cell-based, mouse
# [2] = test system: T1, tmAC; assay: Maximal cAMP-dependent FRET ratio of mlCNBD-FRET in HEK293 cells after stimulation of endogenous adenylate cyclases with increasing NKH477 concentrations.; assay type: cell-based; conditions: SD, n = 4
# T1 construct: endogenous in HEK293 cells, isoform not specified
# [3] = test system: sperm flagellum (mlCNBD-FRET sperm); assay: Dual-view FRET imaging of cAMP dynamics in the flagellum of mlCNBD-FRET sperm; assay type: cell-based, mouse
# [4] = test system: mlCNBD-FRET sperm
# [5] = test system: sperm; conditions: 25 mM bicarbonate, after rapid rise at 1 min
# [6] = biological target: T2, mlCNBD-FRET (Mesorhizobium japonicum, UniProt Q98GN8); assay: Spectrofluorometric titration of 1 uM purified sensor with cGMP, cerulean/citrine FRET ratio at 430 nm excitation, single-site fit.; assay type: binding; conditions: SD, n = 6
# T2 construct: gene mll3241; CNBD (Phe223 to Arg349) with citrine fused to N-terminus and cerulean to C-terminus, C-terminal His10 tag
# T2 sequence (Q98GN8 223-349): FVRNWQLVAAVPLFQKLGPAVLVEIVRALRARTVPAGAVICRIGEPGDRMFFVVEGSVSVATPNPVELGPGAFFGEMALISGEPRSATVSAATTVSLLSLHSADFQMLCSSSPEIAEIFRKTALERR
# [7] = test system: HEK293 cells expressing mlCNBD-FRET; assay: cAMP/cGMP dynamics (FRET ratio) in HEK293 cells expressing mlCNBD-FRET after drug stimulation; assay type: cell-based; conditions: 20 µM isoproterenol, n = 9
# Experimental: Cells were cultured in Ibidi μ-slides (Ibidi, Planegg, Germany) attached to a home-built gravity-flow perfusion system. Measurements were performed using a CellR live-cell imaging system (Olympus) with 20x objective. Cells were perfused with extracellular solution (ES: 120 mM NaCl, 5 mM KCl, 2 mM MgCl2, 2 mM CaCl2, 10 mM HEPES, 10 mM glucose, pH 7.4) to determine the basal FRET ratio and then the stimulus was added (NKH477 and IBMX, Tocris, Wiesbaden, Germany; Isoproterenol and SNP, Sigma-Aldrich). FRET was recorded by exciting cerulean at 436 nm and measuring the emission of cerulean and citrine at 470 nm and 535 nm, respectively. The change in FRET (emissioncerulean/emissioncitrine) was calculated, corrected for bleed-through, normalized to the baseline, and plotted versus time.
# For population measurement using a spectrofluorometer (Quantamaster 40, PTI), HEK293 cells were trypsinized at 37°C for 5 min and washed twice with ES. […] Fluorescence spectra at steady-state were recorded with excitation at 430 nm and 0.5 s integration time. For time-resolved measurements, cells were excited at 430 nm and emission was recorded at 470 nm (cerulean) and 530 nm (citrine) at an acquisition frequency of 1 Hz. The change in FRET (emissioncerulean/emissioncitrine) was calculated, corrected for bleed-through, normalized to the baseline, and plotted versus time.
# [8] = test system: HEK293 cells expressing SSTR3-mlCNBD-FRET; assay: FRET change in HEK293 cells expressing SSTR3-mlCNBD-FRET; assay type: cell-based; conditions: 20 μM isoproterenol, n = 9
# Experimental: Cells were cultured in Ibidi μ-slides (Ibidi, Planegg, Germany) attached to a home-built gravity-flow perfusion system. Measurements were performed using a CellR live-cell imaging system (Olympus) with 20x objective. […] Isoproterenol and SNP, Sigma-Aldrich). FRET was recorded by exciting cerulean at 436 nm and measuring the emission of cerulean and citrine at 470 nm and 535 nm, respectively. The change in FRET (emissioncerulean/emissioncitrine) was calculated, corrected for bleed-through, normalized to the baseline, and plotted versus time. The full-length mouse SSTR3 cloned into pEGFP-N1 was kindly provided by Greg Pazour (UMass Medical School). For expression of SSTR3-tagged mlCNBD-FRET, the SSTR3 coding sequence was amplified by a recombinant PCR reaction to delete the internal NheI site. The fragment was subcloned into […].
# [9] = stopped-flow, 10 mM NH4Cl or 25 mM bicarbonate
# [10] = perfusion with 25 mM bicarbonate, n = 7
smiles,measurement,setting,value
"O=C([O-])CN(CC(=O)[O-])c1ccccc1OCCOc1ccccc1N(CC(=O)[O-])CC(=O)[O-].[K+].[K+].[K+].[K+] [BAPTA, 1,2-Bis(2-aminophenoxy)ethane-N,N,N′,N′-tetraacetic acid tetrapotassium salt]",change in pHi,"[1]; spectrofluorometer, 3 mM BAPTA reducing [Ca2+]o to 443 nM",did not change pHi
Cl.N [NH4Cl],change in pHi,[1]; [9],pronounced alkalization
"C=CC1(C)CC(=O)C2(O)C(C)(O1)C(OC(C)=O)C(OC(=O)CCN(C)C)C1C(C)(C)CCC(O)C12C (centres unmarked) [NKH477, colforsin daropate hydrochloride (water-soluble forskolin derivative)]",EC50,[2],3.6 µM
C=CC1(C)CC(=O)C2(O)C(C)(O1)C(OC(C)=O)C(OC(=O)CCN(C)C)C1C(C)(C)CCC(O)C12C (centres unmarked) [NKH477],cAMP change (FRET) in midpiece or principal piece,"[3]; perfusion with 40 μM NKH477, n = 3",0 ± 3%
"O=C([O-])O.[Na+] [bicarbonate, NaHCO3]",cAMP increase (FRET) in midpiece,[3]; [10],26 ± 3%
same,cAMP increase (FRET) in principal piece,[3]; [10],22 ± 10%
same,change in pHi,[1]; [9],did not dramatically change pHi
same,change in cAMP (FRET),"[4]; 25 mM bicarbonate, 10 μM [Ca2+]o",did not change the cAMP concentration
same,time to steady-state of free cAMP increase,"[4]; 25 mM bicarbonate, 2 mM Ca2+ buffer",about 5 min
same,change in cAMP (FRET),[4]; bicarbonate at 2.2 nM [Ca2+]o (10 μM Ca2+/1 mM BAPTA),did not further enhance cAMP levels
same,time for total cAMP levels to decline to basal levels,[5],≤ 10 min
"Nc1nc2c(ncn2[C@@H]2O[C@@H]3COP(=O)(O)O[C@H]3[C@H]2O)c(=O)[nH]1 [cGMP, cyclic guanosine 3',5'-monophosphate]",Kd,[6],0.504 µM
CC(C)NCC(O)c1ccc(O)c(O)c1 (centres unmarked) [isoproterenol],change of ΔF,[7],47 ± 3%
same,increase of FRET ratio,[8],approximately 25%
